Format in all cases: in vivo, human
Data set [1] relates to cognitively impaired patients with EDS associated with OSA. In words: SHARP clinical study: British Columbia Cognitive Complaints Inventory (BC-CCI). The following applies: 2 weeks treatment, 150 mg per day. The text has this: (§1) SHARP (Solriamfetol's Effect on Cognitive Health in Apnea Participants During a Randomized Placebo-controlled Study) was a randomized, double-blind, placebo-controlled, crossover, multicenter, trial in which 59 patients with excessive daytime sleepiness (EDS) and obstructive sleep apnea (OSA), who were experiencing cognitive impairment, were all treated with solriamfetol for 2 weeks, and with placebo for 2 weeks, with the treatment periods separated by 1 week of down-titration and washout. Patients were randomized in a 1:1 ratio either to treatment with solriamfetol followed by placebo (sequence 1), or to treatment with placebo followed by solriamfetol (sequence 2). Solriamfetol was administered orally once daily, starting at 75 mg per day for the first three days and 150 mg per day for the remainder of the 2-week treatment period. The primary outcome measure was the Digit Symbol Substitution Test subtest of the Repeatable Battery for the Assessment of Neuropsychological Status (DSST RBANS). The Digit Symbol Substitution subtest is also referred to as “Coding.” The prespecified primary endpoint was the change from baseline in cognitive function as measured by the DSST RBANS after 2 weeks of treatment (average of the 2-, 4-, 6-, and 8-hour post-dose DSST RBANS scores). […] The secondary endpoints were analyzed in a pre-specified testing sequence. […]

Data set [2] has the same test system. In words: SHARP clinical study: Epworth Sleepiness Scale (ESS). The following applies: 2 weeks treatment, 150 mg per day.
From the text: as §1

Data set [3] has the same test system. The experiment in a line: SHARP clinical study: adverse events. The following applies: solriamfetol treatment, 75 then 150 mg per day oral, 2 weeks.
From the text: as §1

For data set [4] the test system is unchanged. In words: SHARP clinical study: Digit Symbol Substitution Test subtest of RBANS (DSST RBANS).
From the text: as §1

The structures appear in SMILES notation.

Regarding `NC(=O)OC[C@H](N)Cc1ccccc1` [solriamfetol, (R)-2-amino-3-phenylpropyl carbamate], the “effect size, BC-CCI overall score vs. placebo” value in data set [1] stood at 0.43. Moreover, in data set [1] (p=0.002), the “improvement in cognitive function, BC-CCI overall score compared to placebo” value is recorded as “Statistically significant improvement”. The “effect size, ESS vs. placebo” value in data set [2] is recorded as 0.50. Besides, the “improvement on the ESS relative to placebo” value in data set [2] (p=0.004) is reported as “approximately twice that observed with placebo”. Further, in data set [3], the “adverse event incidence: anxiety” value was determined as 3.4% and the “adverse event incidence: nausea” value came to 6.9%. In data set [4] (2 weeks treatment, 150 mg per day), the “effect size, DSST RBANS vs. placebo” value came out at 0.36. For the same molecule, the “change from baseline on the DSST RBANS” value in data set [4] (after 2 weeks oral once daily (75 mg 3 days, then 150 mg), average of 2-, 4-, 6-, 8-hour post-dose scores, placebo 4.75, p=0.009) came out at 6.49.

These data come from patent US20250032442A1, “METHODS AND COMPOSITIONS FOR TREATING COGNITIVE IMPAIRMENT” (AXSOME MALTA LTD., priority 2021, published 2025).
